According to patent US8138191B2, “Inhibitor compounds and cancer treatment methods” (Critical Outcome Technologies Inc., priority 2007, dated 2012):
Read-outs that look alike come from different tables or passages of the source.

What was measured:
[1] = tested on: total Akt protein in SHP-77 cells; experiment: Total Akt by western blot analysis, SHP-77; type: cell-based, human; details: SHP-77, 250 nM, after 24 hrs
Protocol: (§1) Cell viability was determined at 24, 48, and 96 hrs by the trypan exclusion method. Whole cell lysates were prepared using standard procedures and fifty micrograms of lysate protein was separated on SDS-PAGE gels and analyzed by western blotting.
(§2) Cell viability was determined at 24, 48, and 96 h by the trypan exclusion method. Whole cell lysates were prepared using standard procedures and 50 μg of lysate protein was separated on SDS-PAGE gels and analyzed by western blotting.

[2] = tested on: DMS-114 and SHP-77 SCLC cell lines; experiment: Cell viability by trypan blue exclusion; type: cell-based, human; details: 250 nM, within four days
Protocol: as §1, §2

[3] = tested on: PI3K activity in SHP77 cells; experiment: PI3-K activity (PIP3 detection, Echelon kit), SHP77; type: cell-based, human; details: SHP77, 250 nM COTI-2 alone, 20 minutes
Excerpt: As a negative control, an equivalent volume of DMSO was utilized. […] To measure PI3-K activity, a commercial kit was purchased from Echelon. Following the procedures recommended by the manufacturer, membrane lipids were extracted in several steps and the resulting PIP3 was immobilized to nitrocellulose and measured by its interaction with a PH-domain containing protein and HRP-conjugated antibody supplied with the kit. As an additional control in these experiments, the specific PI3-K inhibitor, LY294002 was used to inhibit PI3-K and thus stop PIP3 production.

[4] = B-A Permeability (TC7, pH 7.4/7.4) + verapamil; type: in vitro ADME; details: human, Caco-2, pH 7.4, with verapamil (concentration not stated), 1.0E−05 M
in vivo = details: both, rat, in vivo
Excerpt: Pharmacokinetic studies in animal models provide valuable information that enables prediction of metabolism in humans. There are a large variety of animal models that allow for the pharmacokinetic evaluation of compounds by providing information on serum, plasma, and tissue levels. […] As a result, it is important to keep this phenomenon in mind during extrapolations from animal to human metabolism. An initial pharmacokinetic assessment of COTI-2, administered both intravenously and orally, in its parent formulation and as both an oxalate and tartrate salt were evaluated in rats.
A single oral or IV dose of the COTI-2 free-base or the aforementioned salt forms was administered to groups of male and female rats and blood samples collected and processed at several time-points post-treatment.

[5] = tested on: AN3-CA human endometrial tumor xenograft; details: for Maximum weight loss (%) (Day #): Day 21; for CS (Complete Shrinkage) / Deaths: N 10; for Mean days of Survival (Day ± SEM): end point of 2000 mg
Protocol: Female athymic nude mice (CrTac:NCR-Foxn1^nu) were supplied by Taconic (Germantown, N.Y.).
The dosing schedule for COTI-2 and the vehicle control was three times weekly until study end. […] When the mean tumor weight of each mouse reached an approximate end-point of 2000 mg, mice were sacrificed with regulated CO2.
The mean tumor shrinkage of each group was calculated and reported.

CYP2C8 = molecular target: T1, CYP2C8 (Homo sapiens, UniProt P10632); experiment: in vitro; details: both
T1 sequence (P10632 1-490): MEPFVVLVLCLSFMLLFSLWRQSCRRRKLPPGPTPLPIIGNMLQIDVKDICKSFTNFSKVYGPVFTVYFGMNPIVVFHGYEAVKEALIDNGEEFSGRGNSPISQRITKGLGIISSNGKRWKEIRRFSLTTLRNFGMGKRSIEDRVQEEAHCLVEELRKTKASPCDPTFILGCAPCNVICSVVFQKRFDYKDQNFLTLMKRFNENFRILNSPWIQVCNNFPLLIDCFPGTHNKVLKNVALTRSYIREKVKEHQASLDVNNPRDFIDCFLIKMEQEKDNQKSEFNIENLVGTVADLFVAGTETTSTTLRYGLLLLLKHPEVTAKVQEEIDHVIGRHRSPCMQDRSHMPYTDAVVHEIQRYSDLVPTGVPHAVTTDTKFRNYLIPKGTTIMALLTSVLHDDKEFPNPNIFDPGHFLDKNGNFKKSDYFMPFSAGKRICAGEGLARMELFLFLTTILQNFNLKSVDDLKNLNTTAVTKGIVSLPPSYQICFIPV

CYP2C9 = CYP2C9 (Homo sapiens, UniProt P11712); experiment: in vitro; details: both
CYP2C9, sequence (P11712 whole entry): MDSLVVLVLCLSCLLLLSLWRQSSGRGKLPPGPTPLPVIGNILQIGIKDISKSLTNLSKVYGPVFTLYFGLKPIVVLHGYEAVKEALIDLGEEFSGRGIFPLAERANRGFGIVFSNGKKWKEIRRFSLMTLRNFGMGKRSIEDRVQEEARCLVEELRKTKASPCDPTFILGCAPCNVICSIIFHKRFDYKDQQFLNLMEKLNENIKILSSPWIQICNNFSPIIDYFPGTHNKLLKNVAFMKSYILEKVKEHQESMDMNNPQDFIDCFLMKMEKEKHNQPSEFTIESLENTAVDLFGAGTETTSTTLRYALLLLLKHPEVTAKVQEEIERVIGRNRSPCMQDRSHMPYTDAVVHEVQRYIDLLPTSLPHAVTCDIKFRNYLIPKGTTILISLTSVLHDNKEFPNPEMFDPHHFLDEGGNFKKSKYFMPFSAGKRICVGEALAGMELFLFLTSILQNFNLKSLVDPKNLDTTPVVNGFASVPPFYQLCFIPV

[6] = tested on: HCT-116 human colon tumor xenograft; experiment: HCT-116 human colon tumor xenograft model; details: for Deaths: N 10
[7] = COTI-2 12.5 mg/kg IV 3X Weekly to end
[8] = COTI-2 50.0 mg/kg IV 3X Weekly to end

Structure (SMILES): S=C(N/N=C1/CCCc2cccnc21)N1CCN(c2ccccn2)CC1 [COTI-2]
- total Akt protein [1]: decreased
- original tumor cells killed [2]: up to 80%
- PI3K activity (PIP3 levels) [3]: did not inhibit PI3K activity
- recovery at 10 µM ([4]; 1st determination, read-out: Percent Recovery 1st): 49%
- recovery at 10 µM ([4]; 2nd determination, read-out: Percent Recovery 2nd): 46%
- recovery at 10 µM ([4]; mean, read-out: Percent Recovery Mean): 47%
- bioavailability (in vivo): 17.7%
- Tmax (in vivo; po): 4 h
- clearance (CL) from plasma, fold higher than the oxalate and tartrate formulations (in vivo; po): approximately 2 fold
- rate of absorption (Ka), fold higher than the other formulations (in vivo; po): approximately 3 fold
- Day 13 Mean tumor weight [5, 7]: 1,828.9 ± 265.8 mg
- Maximum weight loss (%) (Day #) [5, 7]: 8.2% (Day 21)
- CS (Complete Shrinkage) [5, 7]: 0
- Deaths [5, 7]: 0
- Mean days of Survival (Day ± SEM) [5, 7]: 16.7 ± 0.8 days
- Day 13 Mean tumor weight [5, 8]: 1,542.7 ± 217.2 mg
- Day 13 TGI [5, 8]: 7.8%
- Maximum weight loss (%) (Day #) [5, 8]: 5.4% (Day 21)
- CS (Complete Shrinkage) [5, 8]: 0
- Deaths [5, 8]: 1
- Mean days of Survival (Day ± SEM) [5, 8]: 17.2 ± 0.7 days
- Mean days of Survival (Day ± SEM) ([5]; COTI-2 […] IV 3X Weekly to end): 15.8 ± 0.9 days
- toxicity observations ([5]; mouse, in vivo, 50 mg/kg): lethargy and hypoactivity
- tumor weights or survival compared to control ([5]; single agent, IV three times weekly): did not show any statistical differences in tumor weights or survival
- inhibition at 15 min, 10 µM (CYP2C8; human liver microsomes, pH 7.4, probe paclitaxel (10 µM)): 10%
- inhibition at 15 min, 10 µM (CYP2C8; liver microsomes, pH 7.4, probe paclitaxel): < 50%
- inhibition at 15 min, 10 µM (CYP2C9; human liver microsomes, pH 7.4, probe diclofenac (10 µM)): 2%
- inhibition at 15 min, 10 µM (CYP2C9; liver microsomes, pH 7.4, probe diclofenac): < 50%
- Day 15 Mean tumor weight ([6]; COTI-2 12.5 mg/kg IV): 1,471.3 ± 155.9 mg
- Mean survival (Day ± SEM) ([6]; COTI-2 12.5 mg/kg IV): 12.8 ± 0.76 days
- Maximum weight loss (%) (Day #) ([6]; COTI-2 12.5 mg/kg IV, Day 17): 20.96%
- Deaths ([6]; COTI-2 12.5 mg/kg IV): 1
- Day 15 Mean tumor weight ([6]; COTI-2 50.0 mg/kg IV): 1,353.4 ± 127.3 mg
- Mean survival (Day ± SEM) ([6]; COTI-2 50.0 mg/kg IV): 12.6 ± 0.83 days
- Maximum weight loss (%) (Day #) ([6]; COTI-2 50.0 mg/kg IV, Day 22): 18.43%
- Deaths ([6]; COTI-2 50.0 mg/kg IV): 2
